Test: xn = mol fraction of the nth substance listed
Settings: 100 kPa, x2 = 0

CCO + CCCC[n+]1ccn(C)c1.O=S(=O)([N-]S(=O)(=O)C(F)(F)F)C(F)(F)F
Settings | viscosity [mPa·s]
293 K | 1.19
293.3 K | 1.18
293.61 K | 1.18
293.91 K | 1.17
294.21 K | 1.17
294.52 K | 1.16
294.82 K | 1.16
295.12 K | 1.15
295.42 K | 1.15
296.03 K | 1.14
296.33 K | 1.13
296.64 K | 1.13
297.24 K | 1.12
298.45 K | 1.09
298.76 K | 1.09
299.06 K | 1.08
299.36 K | 1.08
299.67 K | 1.07
299.97 K | 1.07
300.27 K | 1.06
300.58 K | 1.06
300.88 K | 1.05
301.18 K | 1.05
301.79 K | 1.04
302.09 K | 1.03
302.39 K | 1.03
303 K | 1.02
303.61 K | 1.01
303.91 K | 1
304.52 K | 0.99
304.82 K | 0.99
305.12 K | 0.98
305.42 K | 0.98
305.73 K | 0.97
306.33 K | 0.96
306.64 K | 0.96
306.94 K | 0.95
307.24 K | 0.95
307.55 K | 0.94
307.85 K | 0.94
308.15 K | 0.93
308.45 K | 0.93
308.76 K | 0.92
309.06 K | 0.92
309.36 K | 0.91
309.97 K | 0.9
310.27 K | 0.9
310.88 K | 0.89
311.18 K | 0.88
311.48 K | 0.88
311.79 K | 0.87
312.09 K | 0.87
312.39 K | 0.86
313.91 K | 0.84
314.21 K | 0.84
314.52 K | 0.83
314.82 K | 0.83
315.12 K | 0.82
315.42 K | 0.82
315.73 K | 0.81
316.03 K | 0.81
316.64 K | 0.8
316.94 K | 0.8
317.24 K | 0.79
317.55 K | 0.79
317.85 K | 0.78
318.15 K | 0.78
318.76 K | 0.77
319.06 K | 0.77
319.97 K | 0.75
320.27 K | 0.75
320.58 K | 0.74
321.18 K | 0.73
321.79 K | 0.73
322.09 K | 0.72
322.39 K | 0.72
322.7 K | 0.71
323 K | 0.71
